# Results taken from patent publication US5484934A, “Isothiazole derivatives, a process for production thereof and uses thereof” (Nihon Nohyaku Co., Ltd., priority 1992, dated 1996).
# Tests used:
# [1] = system: Cladosporium cladosporioides; assay: Inhibition of hypha growth on malt extract agar, Cladosporium cladosporioides; conditions: read-out: Controlling effect (growth inhibition rate) CLC
# Experimental: (§1) Each preparation to be tested was added to malt extract agar medium to adjust the concentration to 50 ppm, and the resulting mixture was dispensed into Petri dishes. As an inoculum, a prepared mycerial tuft of each test fungus was punched out together with agar by means of a 4-mm-diameter cork borer and inoculated on medium. The incubation temperature was adjusted to 28±2° .C (or 18±2° C. in the case of Selupula lacrymas).
# (§2) The diameter of mycerial tuft was measured 2 to 10 days after the inoculation, and the inhibition rate of hypha growth (the following equation) was measured.
# Pyricularia oryzae = assay: whole plant or invertebrate; type: in vivo; conditions: 168 h, read-out: Controlling effect Ps (rice blast)
# Chaetomium globosum = assay: Inhibition of hypha growth on malt extract agar, Chaetomium globosum; conditions: read-out: Controlling effect (growth inhibition rate) CHG
# Experimental: as §1, §2
# (§3) The controlling effect was evaluated according to the following criterion.
# Fusarium oxysporum = assay: Inhibition of hypha growth on malt extract agar, Fusarium oxysporum; conditions: read-out: Controlling effect (growth inhibition rate) FUO
# Experimental: as §1, §2, §3
# Aspergillus niger = assay: Inhibition of hypha growth on malt extract agar, Aspergillus niger; conditions: read-out: Controlling effect (growth inhibition rate) ASN
# Experimental: as §1, §2, §3
# Phytophthora infestants = assay: whole plant or invertebrate; type: in vivo; conditions: 168 h; read-out: Controlling effect Pi (tomato late blight)
# Alternaria mali = assay: Inhibition of hypha growth on malt extract agar, Alternaria mali; conditions: read-out: Controlling effect (growth inhibition rate) ALM
# Experimental: as §1, §2, §3
# Coriolus versicolor = assay: Inhibition of hypha growth on malt extract agar, Coriolus versicolor; type: cell-based; conditions: Trametes versicolor, 28±2° C., 2 to 10 days, read-out: Controlling effect (growth inhibition rate) COV
# Botrytis cinerea = assay: Controlling effect (curing effect) on cucumber gray mold; type: in vivo; conditions: 72 h, immersion of inoculated cotyledons, 15° C., read-out: Controlling effect Bc (cucumber gray mold)
# Experimental: Controlling effect (curing effect) on cucumber gray mold The cotyledons of potted cucumber plants at the 1 leaf stage were cut off and each of them was inoculated with a mycelial tuft of gray mold fungus (Botrytis cinerea) cultured on PSA medium. After having been placed in a moist chamber at 15° C. for 24 hours, the cotyledons were immersed in a 200 ppm liquid chemical containing each compound of the present invention as active ingredient. […]
# Tyromyces palustris = assay: Inhibition of hypha growth on malt extract agar, Tyromyces palustris; conditions: read-out: Controlling effect (growth inhibition rate) TYP
# Experimental: as §1, §2
# Rhizopus nigricans = assay: Inhibition of hypha growth on malt extract agar, Rhizopus nigricans; conditions: Rhizopus stolonifer, read-out: Controlling effect (growth inhibition rate) RHS
# Experimental: as §1, §2
# Trichoderma viride = assay: Inhibition of hypha growth on malt extract agar, Trichoderma viride; conditions: read-out: Controlling effect (growth inhibition rate) TRV
# Experimental: as §1, §2
# [2] = system: Pseudoperonospora cubensis; assay: Controlling effect on cucumber Downy mildew; type: in vivo; conditions: 168 h, 200 ppm spray, inoculation after 24 hours, read-out: Controlling effect Pc (cucumber downy mildew)
# Serpula lacrymans = assay: Inhibition of hypha growth on malt extract agar, Serpula lacrymans; conditions: read-out: Controlling effect (growth inhibition rate) SEL
# Experimental: as §1, §2
Compound,inhibition at 50 ppm [1] [%],pest or weed control at 200 ppm (Pyricularia oryzae) [%],inhibition at 50 ppm (Chaetomium globosum) [%],inhibition at 50 ppm (Fusarium oxysporum) [%],inhibition at 50 ppm (Aspergillus niger) [%],pest or weed control at 200 ppm (Phytophthora infestants) [%],inhibition at 50 ppm (Alternaria mali) [%],inhibition at 50 ppm (Coriolus versicolor) [%],pest or weed control at 200 ppm (Botrytis cinerea) [%],inhibition at 50 ppm (Tyromyces palustris) [%],inhibition at 50 ppm (Rhizopus nigricans) [%],inhibition at 50 ppm (Trichoderma viride) [%],pest or weed control at 200 ppm [2] [%],inhibition at 50 ppm (Serpula lacrymans) [%]
C#CCOc1nsc(S(=O)(=O)CCOCC)c1C#N [Compound 82],100,95 to 100,100,100,100,95 to 100,100,100,60 to 79,100,100,100,95 to 100,100
"COc1nsc(S(=O)(=O)c2ccccc2)c1C#N [Compound 89, 3-methoxy-4-cyano-5-phenylsulfonylisothiazole]",100,95 to 100,100,100,100,95 to 100,100,100,60 to 79,100,100,100,80 to 94,100
COc1nsc(S(=O)(=O)c2ccc(Cl)cc2)c1C#N [Compound 93],100,95 to 100,100,100,100,95 to 100,100,100,60 to 79,100,100,100,95 to 100,100
COc1nsc(S(=O)(=O)C(F)F)c1C#N [Compound 140],100,95 to 100,100,100,100,95 to 100,100,100,95 to 100,100,100,100,95 to 100,100
CC(C)Oc1nsc(S(=O)(=O)C(F)F)c1C#N [Compound 144],100,95 to 100,100,100,100,95 to 100,100,100,95 to 100,100,100,100,95 to 100,100
C#CCOc1nsc(S(=O)(=O)C(F)F)c1C#N [Compound 148],100,95 to 100,100,100,100,95 to 100,100,100,60 to 79,100,100,100,80 to 94,100
